According to patent US4211551A, “Herbicide” (Siegfried AG, priority 1976, dated 1980):

Tests used:
[1] = tested on: five significant types of weeds; experiment: Field test, average weed effect over five weeds; type: in vivo; conditions: four weeks
Excerpt: (§1) The composition prepared according to example 6 was used in field tests and compared with a composition of the type set forth in example 6 with the modification that the CBPA was replaced by the same amount of a conventional herbicide, i.e. Methabenzthiazuron (BSI approved common name). A "logarithmic" spraying apparatus of the type known in herbicide evaluation was used for these tests. This apparatus comprises an elongated spraying device connected with a reservoir for the composition to be tested, and a water reservoir. Separate test areas were sprayed with this apparatus and each composition was applied as an aqueous suspension. […] The apparatus was operated such that the initial concentration of the active ingredient was equivalent to 10 kg/ha and decreased as follows:
(§2) The amount of water applied by the apparatus remained constant and was equivalent to 666 liters per hectare. The tests were made in early August of 1976. The test areas were seeded with crop plant on a substantially weed-free soil, a middle-heavy sandy clay. One test area (zero-control) was seeded but not sprayed. Four weeks thereafter, the treated areas were inspected to determine the number of individual weed plants per square meter for five significant types of weeds and to calculate the percent effect according to the formula
(§3) wherein AK is the number of the individual plants of the specific weed in the untreated zero-control area and AB is the corresponding number of weed plants in the treated area. The results of these tests for three different dosage amounts with the inventive CBPA (column A) and the prior art Methabenzthiazuron are summarized in Table I below. This table further includes compatibility data of three types of crop plants for the tested composition. Crop compatibility was rated according to the evaluation scale of the "European Weed Research Council (EWRC)." In this scale, numeral 1 indicates complete absence of plant damage symptoms while numeral 9 indicates complete damage. For practical purposes, the crop tolerance limit is assumed to be between numerals 4 and 5.

Wild oat (Avena fatua) = experiment: Green-house test, control of Wild oat (EWRC-scale); type: in vivo; conditions: scale 1 = complete absence of plant damage, 9 = complete damage
Excerpt: as §3
Green-house tests were made to determine the activity of CBPA in the control of Wild oat (Avena fatua), a very noxious weed in many crop cultures. The test plants were seeded and cultured in pots at temperatures of 20° to 21° C. Effectivity tests were made when the plants had reached the two-leave to four-leave state, i.e. when the total plant height was about 10 to 12 cm. The amount of water applied in addition to the composition was equivalent to 1000 liters per hectare in each case. As a comparative substance (formulated in the same manner as the inventive CBPA or its salts) a recently developed standard herbicide, Diclofop-methyl, (BSI-approved common name) was used.
The effects were rated again by the EWRC-scale mentioned above and the results are given in Table II below indicating the results at varying amounts of the applied substance (in kilograms of active substance per hectare) after 7, 14 and 21 days subsequent to the treatment.

[2] = tested on: monocotyledonous and dicotyledonous weeds; experiment: Herbicidal effectiveness against monocotyledonous and dicotyledonous weeds; type: in vivo; conditions: pre-emergence and post-emergence treatment
mice = conditions: cited from earlier work
[3] = tested on: Lambs Quarters (Chenopodium album); experiment: Field test, herbicidal % effect on weeds (logarithmic sprayer); type: in vivo; conditions: four weeks
Excerpt: as §1, §2, §3

[4] = tested on: Shepherds Purse (Capsella bursa-pastoris); experiment: as above; type: in vivo; conditions: four weeks
Excerpt: as §1, §2, §3

[5] = tested on: Chickweed (Stellaria media); experiment: as above; type: in vivo; conditions: four weeks
Excerpt: as §1, §2, §3

[6] = tested on: Rough Henbit (Lamium purpureum); experiment: as above; type: in vivo; conditions: four weeks
Excerpt: as §1, §2, §3

[7] = tested on: Camomile (Matricaria chamomilla); experiment: as above; type: in vivo; conditions: four weeks
Excerpt: as §1, §2, §3

[8] = tested on: Annual meadow grass (Poa annua); experiment: Further field tests, control of Graminae weeds; type: in vivo
Excerpt: as §1, §2

[9] = tested on: Common wild oat (Avena fatua); experiment: Further field tests, control of Graminae weeds; type: in vivo
Excerpt: as §1, §2

[10] = tested on: Barnyard Grass (Echinochloa crus-galli); experiment: Further field tests, control of Graminae weeds; type: in vivo
Excerpt: as §1, §2

[11] = tested on: weeds of the Graminae family; experiment: Herbicidal effectiveness against Graminae weeds; type: in vivo; conditions: such as Barnyard grass, Annual meadow-grass, Wild Oat
weed infested crop area = experiment: Treatment of weed infested crop area in the two to four leave state; type: in vivo
Corn (Zea mais) = experiment: Field test, crop compatibility (EWRC-evaluation); type: in vivo
Excerpt: as §1, §2, §3

Green beans = experiment: Field test, crop compatibility (EWRC-evaluation); type: in vivo
Excerpt: as §1, §2, §3

Barley = experiment: Field test, crop compatibility (EWRC-evaluation); type: in vivo; conditions: scale 1 = complete absence of plant damage symptoms, 9 = complete damage
Excerpt: as §1, §2, §3

O=C(O)COc1ccc(Cc2ccc(Cl)cc2)cc1 [CBPA, 4-(4'-chlorobenzyl)-phenoxy acetic acid]
Average weed effect (%) ([1]; 2.65 kg/ha a.i.): 81.8% | Average weed effect (%) ([1]; 4.3 kg/ha a.i.): 95.4% | Average weed effect (%) ([1]; 6.7 kg/ha a.i.): 99.4% | Effect on Wild oat rated by EWRC-scale (Wild oat (Avena fatua); 1 kg/ha, 7 days): 3 | Effect on Wild oat rated by EWRC-scale (Wild oat (Avena fatua); 1 kg/ha, 14 days): 4 | Effect on Wild oat rated by EWRC-scale (Wild oat (Avena fatua); 1 kg/ha, 21 days): 4 | Effect on Wild oat rated by EWRC-scale (Wild oat (Avena fatua); 2 kg/ha, 7 days): 4 | Effect on Wild oat rated by EWRC-scale (Wild oat (Avena fatua); 2 kg/ha, 14 days): 6 | Effect on Wild oat rated by EWRC-scale (Wild oat (Avena fatua); 2 kg/ha, 21 days): 8 | Effect on Wild oat rated by EWRC-scale (Wild oat (Avena fatua); 4 kg/ha, 7 days): 5 | Effect on Wild oat rated by EWRC-scale (Wild oat (Avena fatua); 4 kg/ha, 14 days): 9 | Effect on Wild oat rated by EWRC-scale (Wild oat (Avena fatua); 4 kg/ha, 21 days): 9 | Effect on Wild oat rated by EWRC-scale (Wild oat (Avena fatua); 8 kg/ha, 7 days): 5 | Effect on Wild oat rated by EWRC-scale (Wild oat (Avena fatua); 8 kg/ha, 14 days): 9 | Effect on Wild oat rated by EWRC-scale (Wild oat (Avena fatua); 8 kg/ha, 21 days): 9 | Herbicidal effectiveness against monocotyledonous and dicotyledonous weeds [2]: remarkable degree of effectiveness | Herbicidal effectiveness against monocotyledonous and dicotyledonous weeds ([2]; listed as 4-(4'-chlorobenzyl)-phenoxy acetic acid): surprisingly high degree of herbicidal effectiveness | LD50 (acute oral toxicity) (mice): 2700 mg per kilogram of body weight | Herbicidal % effect on specific weeds ([3]; 2.65 kg/ha a.i.): 83% | Herbicidal % effect on specific weeds ([3]; 4.3 kg/ha a.i.): 100% | Herbicidal % effect on specific weeds ([3]; 6.7 kg/ha a.i.): 100% | Herbicidal % effect on specific weeds ([4]; 2.65 kg/ha a.i.): 84% | Herbicidal % effect on specific weeds ([4]; 4.3 kg/ha a.i.): 96% | Herbicidal % effect on specific weeds ([4]; 6.7 kg/ha a.i.): 100% | Herbicidal % effect on specific weeds ([5]; 2.65 kg/ha a.i.): 83% | Herbicidal % effect on specific weeds ([5]; 4.3 kg/ha a.i.): 100% | Herbicidal % effect on specific weeds ([5]; 6.7 kg/ha a.i.): 100% | Herbicidal % effect on specific weeds ([6]; 2.65 kg/ha a.i.): 89% | Herbicidal % effect on specific weeds ([6]; 4.3 kg/ha a.i.): 91% | Herbicidal % effect on specific weeds ([6]; 6.7 kg/ha a.i.): 97% | Herbicidal % effect on specific weeds ([7]; 2.65 kg/ha a.i.): 70% | Herbicidal % effect on specific weeds ([7]; 4.3 kg/ha a.i.): 90% | Herbicidal % effect on specific weeds ([7]; 6.7 kg/ha a.i.): 100% | Effectiveness for control of Graminae weeds [8]: remarkable effectiveness | Effectiveness for control of Graminae weeds [9]: remarkable effectiveness | Effectiveness for control of Graminae weeds [10]: remarkable effectiveness | Effectiveness when controlling weeds of the Graminae family [11]: particularly beneficial and high degree of effectiveness | Contact effect (weed infested crop area; two to four leave state, in addition to residual effectiveness): remarkable contact effect | Result of treatment in two to four leave state (weed infested crop area; weeds and crops in two to four leave state): positive results | Crop compatibility (EWRC-evaluation) (Corn (Zea mais); in vivo): 1 | Crop compatibility (EWRC-evaluation) (Green beans; in vivo): 1

COC(=O)C(C)Oc1ccc(Oc2ccc(Cl)cc2Cl)cc1 (centres unmarked) [Diclofop-methyl, reference compound]
Effect on Wild oat rated by EWRC-scale (Wild oat (Avena fatua); 1 kg/ha, 7 days): 2 | Effect on Wild oat rated by EWRC-scale (Wild oat (Avena fatua); 1 kg/ha, 14 days): 4 | Effect on Wild oat rated by EWRC-scale (Wild oat (Avena fatua); 1 kg/ha, 21 days): 4 | Effect on Wild oat rated by EWRC-scale (Wild oat (Avena fatua); 2 kg/ha, 7 days): 3 | Effect on Wild oat rated by EWRC-scale (Wild oat (Avena fatua); 2 kg/ha, 14 days): 5 | Effect on Wild oat rated by EWRC-scale (Wild oat (Avena fatua); 2 kg/ha, 21 days): 5 | Effect on Wild oat rated by EWRC-scale (Wild oat (Avena fatua); 4 kg/ha, 7 days): 5 | Effect on Wild oat rated by EWRC-scale (Wild oat (Avena fatua); 4 kg/ha, 14 days): 7 | Effect on Wild oat rated by EWRC-scale (Wild oat (Avena fatua); 4 kg/ha, 21 days): 8 | Effect on Wild oat rated by EWRC-scale (Wild oat (Avena fatua); 8 kg/ha, 7 days): 5 | Effect on Wild oat rated by EWRC-scale (Wild oat (Avena fatua); 8 kg/ha, 14 days): 6 | Effect on Wild oat rated by EWRC-scale (Wild oat (Avena fatua); 8 kg/ha, 21 days): 8

CNC(=O)N(C)c1nc2ccccc2s1 [Methabenzthiazuron, reference compound]
Average weed effect (%) ([1]; 2.65 kg/ha a.i.): 74% | Average weed effect (%) ([1]; 4.3 kg/ha a.i.): 91.5% | Average weed effect (%) ([1]; 6.7 kg/ha a.i.): 95.6% | Herbicidal % effect on specific weeds ([3]; 2.65 kg/ha a.i.): 87% | Herbicidal % effect on specific weeds ([3]; 4.3 kg/ha a.i.): 94% | Herbicidal % effect on specific weeds ([3]; 6.7 kg/ha a.i.): 98% | Herbicidal % effect on specific weeds ([4]; 2.65 kg/ha a.i.): 95% | Herbicidal % effect on specific weeds ([4]; 4.3 kg/ha a.i.): 99% | Herbicidal % effect on specific weeds ([4]; 6.7 kg/ha a.i.): 100% | Herbicidal % effect on specific weeds ([5]; 2.65 kg/ha a.i.): 100% | Herbicidal % effect on specific weeds ([5]; 4.3 kg/ha a.i.): 100% | Herbicidal % effect on specific weeds ([5]; 6.7 kg/ha a.i.): 100% | Herbicidal % effect on specific weeds ([6]; 2.65 kg/ha a.i.): 0% | Herbicidal % effect on specific weeds ([6]; 4.3 kg/ha a.i.): 73% | Herbicidal % effect on specific weeds ([6]; 6.7 kg/ha a.i.): 80% | Herbicidal % effect on specific weeds ([7]; 2.65 kg/ha a.i.): 88% | Herbicidal % effect on specific weeds ([7]; 4.3 kg/ha a.i.): 100% | Herbicidal % effect on specific weeds ([7]; 6.7 kg/ha a.i.): 100% | Crop compatibility (EWRC-evaluation) (Barley; 2.65 kg/ha a.i., tolerance limit between 4 and 5): 1 | Crop compatibility (EWRC-evaluation) (Barley; 4.3 kg/ha a.i.): 1 | Crop compatibility (EWRC-evaluation) (Barley; 6.7 kg/ha a.i., tolerance limit between 4 and 5): 5 | Crop compatibility (EWRC-evaluation) (Corn (Zea mais); Corn, 2.65 kg/ha a.i., scale 1 = complete absence of plant damage symptoms, 9 = complete damage, tolerance limit between 4 and 5): 1 | Crop compatibility (EWRC-evaluation) (Corn (Zea mais); Corn, 4.3 kg/ha a.i., scale 1 = complete absence of plant damage symptoms, 9 = complete damage): 1 | Crop compatibility (EWRC-evaluation) (Corn (Zea mais); Corn, 6.7 kg/ha a.i., scale 1 = complete absence of plant damage symptoms, 9 = complete damage): 1 | Crop compatibility (EWRC-evaluation) (Green beans; Green beans, 2.65 kg/ha a.i., scale 1 = complete absence of plant damage symptoms, 9 = complete damage, tolerance limit between 4 and 5): 1 | Crop compatibility (EWRC-evaluation) (Green beans; Green beans, 4.3 kg/ha a.i., scale 1 = complete absence of plant damage symptoms, 9 = complete damage): 1 | Crop compatibility (EWRC-evaluation) (Green beans; Green beans, 6.7 kg/ha a.i., scale 1 = complete absence of plant damage symptoms, 9 = complete damage): 1
